Earlier results, collected in patent US5846944A (priority 1997, dated 1998).
Like-named read-outs stand apart in the source and are kept apart here.

System: hypercholesterolemic atherosclerosis, New Zealand White rabbits
Settings: cited from earlier work

Vitamin E
reduction of hypercholesterolemic atherosclerosis (Vitamin E 40 mg/kg, rabbits): up to 73% | total blood cholesterol (Vitamin E 40 mg/kg, rabbits): without reducing the total blood cholesterol

CC(C)(Sc1cc(C(C)(C)C)c(O)c(C(C)(C)C)c1)Sc1cc(C(C)(C)C)c(O)c(C(C)(C)C)c1 [Probucol]
reduction of hypercholesterolemic atherosclerosis (Probucol 0.5% in the diet (equivalent to 250 mg/Kg), 0.5% cholesterol diet): up to 43% | total cholesterol in the bloodstream (Probucol 0.5% in the diet, 0.5% cholesterol diet): did not reduce the total cholesterol | effect on reducing atherosclerosis (Probucol, depending upon the extent of the hypercholesterolemia): 15-45%
